The assay has as its target T1, human PAD4 (Homo sapiens, UniProt Q9UM07).
T1 construct: human PAD4 (NM_012387), A2-P663, was PCR amplified; His-SUMO (N, cleaved yes); made in house; host or cells: E. coli BL21(DE3)
Put plainly: In vitro PAD4 BAEE biochemical assay. As to conditions: BAEE substrate 3 mM, 5 nM PAD4, 2 mM calcium chloride; geometric mean of multiple experiments. Summed up:
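Fluorescence read-out (ex 405/em 535 nm) of isoindole formed from ammonia, o-phthalaldehyde and DTT after EDTA stop. Reaction: 5 nM PAD4, 2 mM CaCl2, 3 mM BAEE, 2 h, 25 °C, after 30 min enzyme–compound preincubation. Normalised to BB-Cl-Amidine (50 µM) and DMSO controls.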

T1 sequence (Q9UM07 2-663): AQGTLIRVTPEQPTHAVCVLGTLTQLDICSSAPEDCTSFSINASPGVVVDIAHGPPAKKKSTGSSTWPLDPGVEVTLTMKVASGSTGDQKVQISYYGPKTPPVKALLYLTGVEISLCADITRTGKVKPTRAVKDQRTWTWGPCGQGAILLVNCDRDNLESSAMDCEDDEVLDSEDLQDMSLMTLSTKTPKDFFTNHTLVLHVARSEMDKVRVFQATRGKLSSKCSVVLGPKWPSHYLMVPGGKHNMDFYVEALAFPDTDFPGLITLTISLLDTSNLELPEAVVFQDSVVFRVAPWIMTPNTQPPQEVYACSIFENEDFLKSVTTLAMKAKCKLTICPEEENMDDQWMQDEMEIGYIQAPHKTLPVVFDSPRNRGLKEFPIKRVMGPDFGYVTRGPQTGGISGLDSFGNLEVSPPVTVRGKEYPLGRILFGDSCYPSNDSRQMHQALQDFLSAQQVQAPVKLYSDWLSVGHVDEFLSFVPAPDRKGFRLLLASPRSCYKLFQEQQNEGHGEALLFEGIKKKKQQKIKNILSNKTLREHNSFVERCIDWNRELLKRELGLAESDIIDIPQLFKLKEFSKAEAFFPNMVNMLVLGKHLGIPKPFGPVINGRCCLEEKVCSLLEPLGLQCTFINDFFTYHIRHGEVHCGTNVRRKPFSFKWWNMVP

For the compound `C[C@H]1NC(=O)c2ccc(Cl)nc2CCCCCn2c(-c3nc4cc(C(=O)N5C[C@H](N)[C@@H]6CC[C@H]5C6)cc(F)c4n3CC(F)F)cc3ccc1nc32` [Example 925, (2~{R})-17-[5-[(1~{S),4~{R},5~ {R})-4-amino-2-azabicyclo[3.2.1]octane-2-carbonyl]-1-(2,2-difluoroethyl)-7-fluoro-benzimidazol-2-yl]-8-chloro-2-methyl-3,9,16,22-tetrazatetracyclo[14.5.2.0^ {5,10}.0^{19,23}]tricosa-1(22),5(10),6,8,17,19(23),20-heptaen-4-one], the IC50 (as a rule, the concentration that gives 50% inhibition) is 40 nM.

With `COc1cc(C(=O)N2CC[C@@H](OC)[C@@H](N)C2)cc2nc(-c3cc4ccc5nc4n3CC(F)(F)CCCCC3(CCC3)C(=O)N[C@@H]5C)n(C)c12` [Example 614, (11~{R})-17-[5-[(3~{S},4~ {R})-3-amino-4-methoxy-piperidine-1-carbonyl]-7-methoxy-1-methyl-benzimidazol-2-yl]-3,3-difluoro-11-methyl-spiro[1,10,19-triazatricyclo[10.5.2.0^ {15,18}]nonadeca-12,14,16,18-tetraene-8,1′-cyclobutane]-9-one], the IC50 came to 114 nM.

As for `COc1cc(C(=O)N2[C@H]3CC[C@@H]2[C@H](N)C3)cc2nc(-c3cc4ccc5nc4n3CCCCCCCOc3ncccc3-5)n(C)c12` [Example 85, [(1˜{R},2˜{R},4˜{S})-2-amino-7-azabicyclo[2.2.1]heptan-7-yl]-[7-methoxy-1-methyl-2-(8-oxa-6,16,22-triazatetracyclo[14.5.2.0^{2,7}.0^{19,23}]tricosa-1(22),2,4,6,17,19(23),20-heptaen-17-yl)benzimidazol-5-yl]methanone], the IC50 stood at 406 nM.

In the case of `COc1cc(C(=O)N2[C@H]3CC[C@@H]2[C@H](N)C3)cc2nc(-c3cc4ccc5nc4n3CCCCOc3ccccc3C(=O)N[C@@H]5C)n(C)c12` [Example 41, (2~{R})-17-[5-[(1~{R),2~{R},4~{S})-2-amino-7-azabicyclo[2.2.1]heptane-7-carbonyl]-7-methoxy-1-methyl-benzimidazol-2-yl]-2-methyl-11-oxa-3,16,22-triazatetracyclo[14.5.2.0^{5,10}.0^{19,23}] tricosa-1(22),5,7,9,17,19(23),20-heptaen-4-one], the IC50 stood at 268 nM.

For the compound `COc1cc(C(=O)N2CC[C@@H](OC)[C@@H](N)C2)cc2nc(-c3cc4ccc5nc4n3CCCCC[C@H]3C[C@H]3C(=O)N[C@@H]5C)n(C)c12` [Example 525, (2~{R},5~{R},7~ {S})-14-[5-[(3~{S},4~{R})-3-amino-4-methoxy-piperidine-1-carbonyl]-7-methoxy-1-methyl-benzimidazol-2-yl]-2-methyl-3,13,19-triazatetracyclo [11.5.2.0^{5,7}.0^{16,20}] icosa-1(19),14,16(20), 17-tetraen-4-one], the IC50 amounted to 78 nM.

For the compound `COc1cc(C(=O)N[C@H]2CNC[C@H](O)C2)cc2nc(-c3cc4ccc5nc4n3CCCCCCC(C)(C)C(=O)N[C@@H]5C)n(C)c12` [Example 526, ~{N}-[(3~{R},5~{R})-5-hydroxy-3-piperidyl]-7-methoxy-1-methyl-2-[(11~{R})-8,8,11-trimethyl-9-oxo-1,10,19-triazatricyclo [10.5.2.0^{15,18}]nonadeca-12(19),13,15(18),16-tetraen-17-yl]benzimidazole-5-carboxamide], the IC50 worked out at 65 nM.

Regarding `COc1cc(C(=O)N2[C@H]3CC[C@@H]2[C@H](N)C3)cc2nc(-c3cc4ccc5nc4n3CCCCCCCC(=O)NC5(C)C)n(C)c12` [Example 251, 17-[5-[(1~{R},2~{R},4~{S})-2-amino-7-azabicyclo[2.2.1]heptane-7-carbonyl]-7-methoxy-1-methyl-benzimidazol-2-yl]-11,11-dimethyl-1,10,19-triazatricyclo[10.5.2.0^{15,18}]nonadeca-12(19),13,15(18),16-tetraen-9-one], the IC50 is 74 nM.

Take `COc1cc(C(=O)N2[C@H]3CC[C@@H]2[C@H](N)C3)cc2nc(-c3cc4ccc5nc4n3CCCCCCCCC(=O)N[C@@H]5C)n(C)c12` [Example 286, (12~{R})-18-[5-[(1~{R},2~{R},4~{S})-2-amino-7-azabicyclo[2.2.1]heptane-7-carbonyl]-7-methoxy-1-methyl-benzimidazol-2-yl]-12-methyl-1,11,20-triazatricyclo[11.5.2.0^{16,19}]icosa-13(20),14,16(19),17-tetraen-10-one]: the IC50 came out at 9 nM.

Regarding `COc1cc(C(=O)N2CCC[C@@H](N)C2)cc2nc(-c3cc4ccc5nc4n3CCCCCCOc3ccccc3C(=O)N[C@@H]5C)c(C)n12` [Example 147, (2~{R})-19-[7-[(3~{R})-3-aminopiperidine-1-carbonyl]-5-methoxy-3-methyl-imidazo[1,2-a]pyridin-2-yl]-2-methyl-11-oxa-3,18,24-triazatetracyclo [16.5.2.0^{5,10}.0^{21,25}] pentacosa-1(24),5(10),6,8,19,21(25),22-heptaen-4-one], the half-maximal inhibitory concentration (IC50) is 365 nM.

As to `COc1cc(C(=O)N[C@H]2CNCC[C@@H]2F)cc2nc(-c3cc4ccc5nc4n3CCCCCCC(C)(C)C(=O)N[C@@H]5C)n(C)c12` [Example 178, ~{N}-[(3~{S},4~{S})-4-fluoro-3-piperidyl]-7-methoxy-1-methyl-2-[(11~{R})-8,8,11-trimethyl-9-oxo-1,10-diazatricyclo[10.5.2.0^{15,18}]nonadeca-12(19),13,15(18),16-tetraen-17-yl]benzimidazole-5-carboxamide], the IC50 turned out to be 50 nM.

With `CO[C@@H]1CCN(C(=O)c2cc(F)c3c(c2)nc(-c2cc4ccc5nc4n2CCCCCc2nc4ccccc4cc2C(=O)N(C)[C@@H]5C)n3C2CC2)C[C@@H]1N` [Example 833, (2~{R})-21-[5-[(3~{S},4~ {R})-3-amino-4-methoxy-piperidine-1-carbonyl]-1-cyclopropyl-7-fluoro-benzimidazol-2-yl]-2,3-dimethyl-3,13,20,26-tetrazapentacyclo[18.5.2.0^ {5,14).0^{7,12}.0^ {23,27}]heptacosa-1(26),5(14),6,8,10,12, 21,23(27),24-nonaen-4-one], the IC50 worked out at 61 nM.

`CCc1c(-c2cc3ccc4nc3n2CCCCCCCC(=O)N[C@@H]4C)nn2cc(C(=O)N3[C@H]4CC[C@@H]3[C@H](N)C4)ccc12` [Example 252, 17-[5-[(1˜{R},2˜{R},4˜{S})-2-amino-7-azabicyclo[2.2.1]heptane-7-carbonyl]-3-ethylpyrazolo[1,5-a]pyridin-2-yl]-11-methyl-1,10,19-triazatricyclo[10.5.2.0^{15,18}]nonadeca-12(19),13,15(18),16-tetraen-9-one]: the concentration for half-maximal inhibition (IC50) was 45 nM.

Consider `Cc1ccc2c(n1)CCCCCn1c(-c3nc4cc(C(=O)N5C[C@H](N)[C@@H]6CC[C@H]5C6)cc(F)c4n3C3CC3)cc3ccc(nc31)[C@@H](C)NC2=O` [Example 670, (2~{R})-17-[5-[(1~{S),4~{R}, 5~{R})-4-amino-2-azabicyclo[3.2.1]octane-2-carbonyl]-1-cyclopropyl-7-fluoro-benzimidazol-2-yl]-2,8-dimethyl-3,9,16,22-tetrazatetracyclo[14.5.2.0^ {5,10).0^{19,23}]tricosa-1(22),5(10),6,8,17,19(23), 20-heptaen-4-one], for which the IC50 stood at 6 nM.

For `COc1cc(C(=O)N2[C@H]3CC[C@@H]2[C@H](N)C3)cc2nc(-c3cc4ccc5nc4n3CCCCCCCC(=O)N[C@@H]5C)c(C)n12` [Example 316, (11˜{R})-17-[7-[(1˜{R},2˜{R},4˜{S})-2-amino-7-azabicyclo[2.2.1]heptane-7-carbonyl]-5-methoxy-3-methyl-imidazo[1,2-a]pyridin-2-yl]-11-methyl-1,10,19-triazatricyclo[10.5.2.0^{15,18}]nonadeca-12(19),13,15(18),16-tetraen-9-one], the IC50 stood at 14 nM.

As for `COc1cc(C(=O)N2[C@H]3CC[C@@H]2[C@H](N)C3)cc2nc(-c3cc4ccc5nc4n3CCCCOCC(=O)N[C@@H]5C)c(C)n12` [Example 324, (10~{R})-16-[7-[(1~{R},2~{R},4~{S})-2-amino-7-azabicyclo[2.2.1]heptane-7-carbonyl]-5-methoxy-3-methyl-imidazo[1,2-a]pyridin-2-yl]-10-methyl-6-oxa-1,9,18-triazatricyclo[9.5.2.0^{14,17}]octadeca-11(18),12,14(17),15-tetraen-8-one], the IC50 worked out at 36 nM.

Turning to `COc1cc(C(=O)N[C@H]2CNCC[C@@H]2F)cc2nc(-c3cc4ccc5nc4n3CCCCCc3nn(C)nc3C(=O)N[C@@H]5C)n(C)c12` [Example 185, 2-[(2~{R})-2,7-dimethyl-4-oxo-3,6,7,8,15,21-hexazatetracyclo[13.5.2.0^{5,9}.0^{18,22}]docosa-1(21),5,8,16,18(22),19-hexaen-16-yl]-~{N}-[(3~{S),4~{S})-4-fluoro-3-piperidyl]-7-methoxy-1-methyl-benzimidazole-5-carboxamide], the IC50 was found to be 66 nM.

As for `COc1cc(C(=O)N2CC[C@@H](OC)[C@@H](N)C2)cc2nc(-c3cc4ccc5nc4n3CCCCCc3ccnc(C4CC4)c3C(=O)N[C@@H]5C)n(C)c12` [Example 663, (2~{R})-17-[5-[(3~{S),4~ {R})-3-amino-4-methoxy-piperidine-1-carbonyl]-7-methoxy-1-methyl-benzimidazol-2-yl]-6-cyclopropyl-2-methyl-3,7,16,22-tetrazatetracyclo[14.5.2.0^ {5,10}.0^{19,23}] tricosa-1(22),5,7,9,17,19(23), 20-heptaen-4-one], the IC50 turned out to be 71 nM.

As to `COc1cc(C(=O)N2CCC[C@@H](N)[C@H]2C(F)F)cc2nc(-c3cc4ccc5nc4n3CC(F)(F)CCC[C@@H]3C[C@H]3C(=O)N[C@@H]5C)n(C)c12` [Example 647, (2~{R},5~{R},7~{R})-14-[5-[(2~{S},3~{R})-3-amino-2-(difluoromethyl)piperidine-1-carbonyl]-7-methoxy-1-methyl-benzimidazol-2-yl]-11,11-difluoro-2-methyl-3,13,19-triazatetracyclo[11.5.2.0^ {5,7}.0^{16,20}] icosa-1(19),14,16(20), 17-tetraen-4-one], the IC50 worked out at 58 nM.

For the origin of these results see US11976083B2, “Inhibitors of peptidylarginine deiminases” (Gilead Sciences, Inc., priority 2020, dated 2024).
